Measurements as given in patent publication US10711230B2, “N-acyl proline derivatives as food flavoring compounds” (Givaudan S.A., priority 2012, dated 2020).

What was measured:
[1] = Expert taster evaluation in a mango juice drink; conditions: 1 ppm in base (water, 8% sucrose, 0.1% citric acid, 1% clear mango juice, mango flavour 0.05%); base alone: fruity mango
Method: (§1) Samples were evaluated by expert tasters. Tasters were asked to describe the samples focusing on authentic taste, mouthfeel, fullness, salty-ness, salivation, umami, sweetness, juiciness, richness, long lastingness and fattiness.
Comparison in a Mango Juice Drink
Base is water, 8% sucrose, 0.1% citric acid, 1% clear mango juice, proprietary mango flavour @ 0.05%

[2] = Expert taster evaluation in beef bouillon; conditions: 1 ppm in base (Maggi beef bouillon, 1 tablet in 500 ml hot water); base alone: salty, umami, powdery
Method: as §1
Base is Maggi beef bouillon 1 tablet in 500 ml of hot water

[3] = Expert taster evaluation in orange beverage; conditions: 1 ppm in base (water, 7% sugar, 0.1% citric acid, orange flavour 0.06%); base alone: orange, fruity, slightly candy
Method: as §1
Base is water, 7% sugar, 0.1% citric acid, proprietary orange flavour @ 0.06%.

[4] = Expert taster evaluation in lemon beverage; conditions: 1 ppm in base (water, 7% sucrose, 0.15% citric acid, lemon flavor), base alone: floral, citral
Method: as §1
Basis water, 7% sucrose, 0.15% citric acid, proprietary lemon flavor

Row | SMILES | taste description in mango juice drink [1] | taste description in bouillon [2] | taste description in orange beverage [3] | taste description in lemon beverage [4]
1 | CCCCCCCCCCCCCCCC(=O)N1CCCC1C(=O)O (stereo not shown) [C16:0-pro, N-palmitoyl-Pro] | overripe, orange like, long lasting after taste | more salty, full, darker, more meat-like | – | –
2 | CCCCC/C=C\C/C=C\CCCCCCCC(=O)N1CCC[C@H]1C(=O)O [C18:2-pro, N-linoleoyl-Pro] | – | – | very juicy, authentic orange | very juicy, more citral like, very authentic
